One assay deals with rabbits. Nature of the assay: Visual acuity by sweep visual evoked potential (swVEP) in conscious rabbits after transient IOP elevation. Format: in vivo, rabbit. To be noted: 4.5 months after transient IOP elevation; 2.5 kg rabbits pre-treated with oral dose of 50 mg memantine; compared with 50 mg sugar placebo (reduction in acuity). On the procedure: This invention is especially useful in the use of memantine to normalize visual acuity deficits from outer retina (photoreceptor/RPE) injury.
(§1) Rabbits were anesthetized with isofluorane, and prepared for unilateral acute retinal ischemia by raising IOP in the OD eye by 120 mm Hg for 45 minutes. To accomplish this, a reservoir with PBS was suspended 65 inches above the eye and connected to a 30 gauge needle inserted through the cornea into the anterior chamber. A drop of topical anesthetic (proparacaine) was placed upon the cornea prior to needle insertion.
swVEP is an electrophysiological technique for assessing visual acuity in young children who can't read the Snellen eye charts. Pattern reversal images of increasing spatial frequency are projected onto the macula while simultaneously recording electrical activity (VEP) from the scalp. Images with lower spatial frequency generate large signals which get smaller as the spatial frequency increases, until signal=noise; this threshold is the visual acuity. […]
Vertical steady-state pattern-reversal sweep stimulus at spatial frequency range of 0.1 to 5 cycles per degree at a temporal frequency of 7.5 Hz were applied to the eye at mean luminance of 600 cd/m2 and contrast of 80%. […] Trials were averaged and the threshold (visual acuity) was determined by software or manual fitting at signal-to-noise ration no less than 2.5. […]

The next assay relates to retinal cells. Kind of assay: Histology (H&E) examination of eyes after transient IOP elevation. To be noted: compared with the placebo group (patchy loss of predominantly outer retina cells). It is filed as in vivo, rabbit. As for the experimental part:
as §1, with “This invention is especially useful in the use of memantine to normalize visual acuity deficits from outer retina (photoreceptor/RPE) injury. […] Retinal cell degeneration was less in the memantine group compared with the placebo group. Rabbits” for “Rabbits”

With `CC12CC3CC(C)(C1)CC(N)(C3)C2` [memantine], the visual acuity result in the assay with rabbits is given as “normal visual acuities”. The retinal cell degeneration entry in the assay with retinal cells is “less”.

For the origin of these results see US20070167527A1, “MEMANTINE FOR THE NORMALIZATION OF VISUAL ACUITY DEFICITS” (priority 2006, published 2007).
